This is an account of results in ChEMBL document CHEMBL4130367, “Click chemistry-based synthesis and anticancer activity evaluation of novel C-14 1,2,3-triazole dehydroabietic acid hybrids” (Eur J Med Chem, 2017).

Usually pIC50 stands for the IC50 on a negative log10 scale, so that one unit is a factor of ten. In general, logP refers to a log measure of how a compound divides between an organic and an aqueous phase. A lower logP goes with lower lipophilicity.

The test system of one series is MDA-MB-231. Put plainly: Cytotoxicity against human MDA-MB-231 cells assessed as reduction in cell viability after 72 hrs by MTT assay. The following applies: MDA-MB-231, 72 h. The format is functional, cell-based. A general note: Tetrazolium assays rely on reduction of a dye to a coloured formazan, in cell work by metabolically active cells.
The test system of another series is SK-OV-3. In words: Cytotoxicity against human SKOV3 cells assessed as reduction in cell viability after 72 hrs by MTT assay. The format is functional, cell-based. The settings on record: SK-OV-3, 72 h.
Series [1] in a line: Octanol-water partition coefficient, log P of the compound. The class given is physicochemical.
The subject of a further series is MCF7. In words: cells. The settings on record: Homo sapiens, MCF7, 72 h.
A further series deals with PC-3. Put plainly: Cytotoxicity against human PC3 cells assessed as reduction in cell viability after 72 hrs by MTT assay. The class given is functional, cell-based. The settings on record: PC-3, 72 h.
The test system of series [2] is NCI/ADR-RES. In words: Growth inhibition of human MCF7/ADR cells at 2.5 to 5 uM after 72 hrs by MTT assay relative to control. The class given is functional.
Series [3] concerns NCI/ADR-RES. Put plainly: Growth inhibition of human MCF7/ADR cells after 72 hrs by MTT assay. The class given is functional, cell-based.

pIC50: −log10 of the molar value.

Description for MCF7: Cytotoxicity against human MCF7 cells assessed as reduction in cell viability after 72 hrs by MTT assay

Take `COC(=O)[C@]1(C)CCC[C@]2(C)c3ccc(C(C)C)c(NC(=O)Cn4cc(-c5cc(OC)cc(OC)c5)nn4)c3CC[C@@H]12`: the pIC50 in the series on MDA-MB-231 was 5.85; in the series on SK-OV-3 it was 5.48; in the series on MCF7 it was 5.05; with PC-3, 5.28. In series [1], the logP came out at 5.24.

`COC(=O)[C@]1(C)CCC[C@]2(C)c3ccc(C(C)C)c(NC(=O)Cn4cc(CBr)nn4)c3CC[C@@H]12`: the negative-log IC50 (pIC50) in the series on MDA-MB-231 is 4.22; in the series on SK-OV-3, less than 4.00; in the series with MCF7, less than 4.00; in the series with PC-3, less than 4.00. In series [1], the logP worked out at 4.47.

As for `COC(=O)[C@]1(C)CCC[C@]2(C)c3ccc(C(C)C)c(NC(=O)Cn4cc(-c5ccc6ccccc6c5)nn4)c3CC[C@@H]12`, the pIC50 in the series with MDA-MB-231 is 4.57; in the series on SK-OV-3, 4.34; with MCF7, 4.92; with PC-3, 5.04. The same molecule returned a logP in series [1] of 6.38.

Turning to `COC(=O)[C@]1(C)CCC[C@]2(C)c3ccc(C(C)C)c(NC(=O)Cn4cc(-c5cccc([N+](=O)[O-])c5)nn4)c3CC[C@@H]12`, the pIC50 is 4.06 with MDA-MB-231, less than 4.00 in the series with SK-OV-3, 4.04 in the series with MCF7 and less than 4.00 with PC-3. Also, in series [1], the log partition coefficient (logP) was determined as 5.13.

Consider `COC(=O)[C@]1(C)CCC[C@]2(C)c3ccc(C(C)C)c(N)c3CC[C@@H]12`, for which the pIC50 in the series on MDA-MB-231 is 4.62; in the series with SK-OV-3, 5.21; with MCF7, 4.51; in the series on PC-3, 4.60.

As to `COC(=O)[C@]1(C)CCC[C@]2(C)c3ccc(C(C)C)c(NC(=O)Cn4cc(-c5ccccc5F)nn4)c3CC[C@@H]12`, the pIC50 is 5.00 in the series on MDA-MB-231, 4.82 in the series with SK-OV-3, 4.71 in the series on MCF7 and 5.06 with PC-3. The molecule also returned a logP in series [1] of 5.36.

On to `COC(=O)[C@]1(C)CCC[C@]2(C)c3ccc(C(C)C)c(NC(=O)Cn4cc(-c5ccccn5)nn4)c3CC[C@@H]12`, for which the pIC50 in the series on MDA-MB-231, in the series with SK-OV-3, in the series on MCF7 and in the series with PC-3 was less than 4.00 each time. In addition, in series [1], the logP came to 4.05.

Take `COC(=O)[C@]1(C)CCC[C@]2(C)c3ccc(C(C)C)c(NC(=O)Cn4cc(CNc5nc(Cl)nc(Cl)n5)nn4)c3CC[C@@H]12`: the pIC50 is less than 4.00 in the series on MDA-MB-231, 4.04 in the series on SK-OV-3, less than 4.00 in the series on MCF7 and less than 4.00 in the series with PC-3. For the same molecule, the logP in series [1] was 5.12.

Consider `COC(=O)[C@]1(C)CCC[C@]2(C)c3ccc(C(C)C)c(NC(=O)Cn4cc(-c5ccc(OC)cc5)nn4)c3CC[C@@H]12`, for which the pIC50 was 5.74 with MDA-MB-231, 5.85 in the series with SK-OV-3, 5.85 in the series on MCF7 and 5.72 in the series on PC-3. This molecule also showed a logP in series [1] of 5.28. The “growth inhibition (GI)” value is greater than 50% with NCI/ADR-RES [2] and “Dose-dependent effect” with NCI/ADR-RES [3].

As for `COC(=O)c1nnn(CC(=O)Nc2c(C(C)C)ccc3c2CC[C@H]2[C@](C)(C(=O)OC)CCC[C@]32C)c1C(=O)OC`, the negative-log IC50 (pIC50) with MDA-MB-231 is 5.09; in the series on SK-OV-3 it was 4.60; in the series on MCF7, 4.81; in the series on PC-3, 4.31. The molecule also came in with a logP in series [1] of 3.67.

Turning to `COC(=O)[C@]1(C)CCC[C@]2(C)c3ccc(C(C)C)c(NC(=O)Cn4cc(-c5ccc(OC(F)(F)F)cc5)nn4)c3CC[C@@H]12`, the pIC50 with MDA-MB-231 is 4.63; with SK-OV-3, 4.69; in the series on MCF7 it was 5.04; in the series with PC-3 it was 4.92. This molecule came in with a logP in series [1] of 6.17.

For the molecule `COC(=O)[C@]1(C)CCC[C@]2(C)c3ccc(C(C)C)c(NC(=O)Cn4cc(-c5ccc(-c6ccccc6)cc5)nn4)c3CC[C@@H]12`, the pIC50 in the series with MDA-MB-231 is 5.05; in the series with SK-OV-3, 4.80; in the series on MCF7, 5.02; in the series on PC-3, 4.95. In series [1], the logP worked out at 6.99.

In the case of `COC(=O)[C@]1(C)CCC[C@]2(C)c3ccc(C(C)C)c(NC(=O)Cn4cc(-c5cccs5)nn4)c3CC[C@@H]12`, the pIC50 is 4.24 with MDA-MB-231, less than 4.00 in the series on SK-OV-3, less than 4.00 in the series on MCF7 and less than 4.00 in the series with PC-3. For the same molecule, the logP in series [1] came to 4.98.

With `COC(=O)[C@]1(C)CCC[C@]2(C)c3ccc(C(C)C)c(NC(=O)CCl)c3CC[C@@H]12`, the pIC50 in the series on MDA-MB-231 was less than 4.00; in the series with SK-OV-3, 4.16; in the series with MCF7, 4.29; in the series with PC-3, 4.15.

In the case of `CCOC(=O)c1cn(CC(=O)Nc2c(C(C)C)ccc3c2CC[C@H]2[C@](C)(C(=O)OC)CCC[C@]32C)nn1`, the pIC50 in the series on MDA-MB-231 is 4.67; in the series with SK-OV-3, 4.64; in the series with MCF7, 4.79; with PC-3 it was 4.81. In series [1], this molecule displayed a log partition coefficient (logP) of 3.97.

With `CC(C)[C@]12O[C@H]1[C@@H]1O[C@@]13[C@@]1(C)CCC4=C(COC4=O)[C@@H]1C[C@@H]1O[C@@]13C2=O` [TRIPTONIDE], the pIC50 was 7.52 in the series with MDA-MB-231, 7.52 with MCF7 and 7.70 with PC-3.

Turning to `COC(=O)[C@]1(C)CCC[C@]2(C)c3ccc(C(C)C)c(NC(=O)Cn4cc(-c5cccc(F)c5)nn4)c3CC[C@@H]12`, the pIC50 is less than 4.00 with MDA-MB-231, 4.04 with SK-OV-3, 4.16 in the series with MCF7 and less than 4.00 with PC-3. Besides, the logP in series [1] worked out at 5.34.

In the case of `COC(=O)[C@]1(C)CCC[C@]2(C)c3ccc(C(C)C)c(NC(=O)Cn4cc(-c5cccc(OC)c5)nn4)c3CC[C@@H]12`, the pIC50 in the series on MDA-MB-231 was 5.85; in the series with SK-OV-3 it was 6.05; in the series with MCF7, 6.10; in the series on PC-3 it was 5.96. Further, the logP in series [1] was 5.23. The “growth inhibition (GI)” value was greater than 50% in the series on NCI/ADR-RES [2] and “Dose-dependent effect” in the series with NCI/ADR-RES [3].

Regarding `COC(=O)[C@]1(C)CCC[C@]2(C)c3ccc(C(C)C)c(NC(=O)Cn4cc(-c5ccccc5OC)nn4)c3CC[C@@H]12`, the pIC50 is 5.74 in the series on MDA-MB-231, 5.85 with SK-OV-3, 6.00 in the series with MCF7 and 5.64 with PC-3. Moreover, the logP in series [1] was found to be 5.21.

Regarding `COC(=O)[C@]1(C)CCC[C@]2(C)c3ccc(C(C)C)c(NC(=O)CN=[N+]=[N-])c3CC[C@@H]12`, the pIC50 in the series with MDA-MB-231 is 4.22; in the series on SK-OV-3 it was less than 4.00; in the series with MCF7, 4.28; with PC-3, less than 4.00.

On to `COC(=O)[C@]1(C)CCC[C@]2(C)c3ccc(C(C)C)c(NC(=O)Cn4cc(-c5cccnc5)nn4)c3CC[C@@H]12`, for which the pIC50 with MDA-MB-231 was 4.38; in the series with SK-OV-3 it was less than 4.00; with MCF7, less than 4.00; in the series on PC-3, 4.52. In series [1], the logP was determined as 4.13.

As to `COC(=O)[C@]1(C)CCC[C@]2(C)c3ccc(C(C)C)c(NC(=O)Cn4cc(C5CC5)nn4)c3CC[C@@H]12`, the pIC50 with MDA-MB-231 is 4.79; with SK-OV-3 it was 4.71; with MCF7, 4.62; in the series on PC-3, 4.91. In series [1], this molecule yielded a logP of 4.11.

In the case of `COC(=O)[C@]1(C)CCC[C@]2(C)c3ccc(C(C)C)c(NC(=O)Cn4cc(-c5ccc([N+](=O)[O-])cc5)nn4)c3CC[C@@H]12`, the negative-log IC50 (pIC50) in the series with MDA-MB-231 was less than 4.00; in the series on SK-OV-3, 4.11; in the series with MCF7, less than 4.00; with PC-3 it was less than 4.00. In series [1], this molecule had a logP of 5.16.

Consider `COC(=O)[C@]1(C)CCC[C@]2(C)c3ccc(C(C)C)c(NC(=O)Cn4cc(-c5cccc(NC(C)=O)c5)nn4)c3CC[C@@H]12`, for which the negative-log IC50 (pIC50) is 5.23 in the series on MDA-MB-231, 5.41 in the series on SK-OV-3, 5.82 in the series with MCF7 and 5.00 with PC-3. Further, the logP in series [1] turned out to be 4.39.

Regarding `COC(=O)[C@]1(C)CCC[C@]2(C)c3ccc(C(C)C)c(NC(=O)Cn4cc(-c5ccc(F)cc5)nn4)c3CC[C@@H]12`, the pIC50 with MDA-MB-231 is 6.00; in the series on SK-OV-3 it was 5.74; in the series on MCF7 it was 5.72; in the series on PC-3, 5.59. In series [1], this molecule showed a logP of 5.31.

As for `COC(=O)[C@]1(C)CCC[C@]2(C)c3ccc(C(C)C)c(NC(=O)Cn4cc([Si](C)(C)C)nn4)c3CC[C@@H]12`, the pIC50 in the series on MDA-MB-231 is less than 4.00; in the series with SK-OV-3, 4.19; in the series with MCF7, less than 4.00; in the series on PC-3 it was 4.03. The same molecule had a logP in series [1] of 6.04.

Turning to `O=c1[nH]cc(F)c(=O)[nH]1` [FLUOROURACIL], the pIC50 was 4.61 with MDA-MB-231, 4.68 in the series with SK-OV-3, 5.28 in the series on MCF7 and 4.86 in the series with PC-3.

Consider `COC(=O)[C@]1(C)CCC[C@]2(C)c3ccc(C(C)C)c(NC(=O)Cn4cc(-c5ccncc5)nn4)c3CC[C@@H]12`, for which the pIC50 in the series with MDA-MB-231, in the series on SK-OV-3, with MCF7 and in the series on PC-3 was less than 4.00 in each case. The logP in series [1] stood at 3.91.

Take `COC(=O)[C@]1(C)CCC[C@]2(C)c3ccc(C(C)C)c(NC(=O)Cn4cc(Cc5ccccc5)nn4)c3CC[C@@H]12`: the pIC50 with MDA-MB-231 is 4.50; in the series with SK-OV-3, 4.23; with MCF7, less than 4.00; in the series on PC-3, less than 4.00. The logP in series [1] is 5.72.

With `COC(=O)[C@]1(C)CCC[C@]2(C)c3ccc(C(C)C)c(NC(=O)Cn4cc(-c5ccccc5)nn4)c3CC[C@@H]12`, the pIC50 is 5.52 with MDA-MB-231, 5.32 with SK-OV-3, 5.43 in the series with MCF7 and 5.47 with PC-3. This molecule also had a logP in series [1] of 5.2.
